US20240018133A1, “MODULATORS OF THE INTEGRATED STRESS PATHWAY” (Calico Life Sciences LLC, priority 2019, published 2024)

System: ATF4 luciferase reporter (human full-length ATF4 5'-UTR fused to firefly luciferase) in HEK293T cells
Assay: ATF4-Luc assay (in vitro model of VWMD): HEK293T cells carrying ATF4 luciferase reporter, tunicamycin-treated
Type: cell-based
Conditions: Homo sapiens, HEK-293T, 1 μg/mL tunicamycin, 7 hours, One Glo luminescence
Experimental: In order to test exemplary compounds of the invention in a cellular context, a stable VWMD cell line was first constructed. The ATF4 reporter was prepared by fusing the human full-length ATF4 5′-UTR (NCBI Accession No. BC022088.2) in front of the firefly luciferase (FLuc) coding sequence lacking the initiator methionine as described in Sidrauski et al (eLife 2013). The construct was used to produce recombinant retroviruses using standard methods and the resulting viral supernatant was used to transduce HEK293T cells, which were then subsequently selected with puromycin to generate a stable cell line.
HEK293T cells carrying the ATF4 luciferase reporter were plated on polylysine coated 384-well plates (Greiner Bio-one) at 30,000 cells per well. Cells were treated the next day with 1 μg/mL tunicamycin and 200 nM of a compound of Formula (I) for 7 hours. Luminescence was measured using One Glo (Promega) as specified by the manufacturer. Cells were maintained in DMEM with L-glutamine supplemented with 10% heat-inactivated FBS (Gibco) and Antibiotic-Antimycotic solution (Gibco).
Table 2 below summarizes the EC50 data obtained using the ATF4-Luc assay for exemplary compounds of the invention.

Row | SMILES | EC50
1 | O=C(COc1ccc(Cl)c(F)c1)NC12CC(NC(=O)[C@H]3CN(CC4(O)CC4)c4cc(Cl)ccc4O3)(C1)C2 [Compound 325, (2R)-6-chloro-N-{3-[2-(4-chloro-3-fluorophenoxy)acetamido]bicyclo[1.1.1]pentan-1-yl}-4-[(1-hydroxycyclopropyl)methyl]-3,4-dihydro-2H-1,4-benzoxazine-2-carboxamide] | 10 to 50 nM
2 | O=C(COc1ccc(Cl)c(F)c1)NC12CC(NC(=O)c3cc(=O)c4cc(Cl)cc(Cl)c4o3)(C1)C2 [Compound 289, 6,8-dichloro-N-{3-[2-(4-chloro-3-fluorophenoxy)acetamido]bicyclo[1.1.1]pentan-1-yl}-4-oxo-4H-1-benzopyran-2-carboxamide] | 500 to 2000 nM
3 | O=C(COc1ccc(Cl)c(F)c1)NC12CC(NC(=O)[C@@H]3C[C@H](O)c4cc(F)c(F)cc4O3)(C1)C2 [Compound 253, (2S,4S)—N-{3-[2-(4-chloro-3-fluorophenoxy)acetamido]bicyclo[1.1.1]pentan-1-yl}-6,7-difluoro-4-hydroxy-3,4-dihydro-2H-1-benzopyran-2-carboxamide] | < 10 nM
4 | O=C(COc1ccc(Cl)c(F)c1)NC12CC(NC(=O)[C@@H]3C[C@H](O)c4cc(Cl)ccc4O3)(C1)C2 [Compound 195, (2S,4S)-6-chloro-N-{3-[2-(4-chloro-3-fluorophenoxy)acetamido]bicyclo[1.1.1]pentan-1-yl}-4-hydroxy-3,4-dihydro-2H-1-benzopyran-2-carboxamide] | < 10 nM
5 | O=C(COc1ccc(Cl)c(F)c1)NC12CC(NC(=O)[C@@H]3C[C@@H](N[C@H]4C[C@@H](O)C4)c4cc(Cl)ccc4O3)(C1)C2 [Compound 316, (2S,4R)-6-chloro-N-{3-[2-(4-chloro-3-fluorophenoxy)acetamido]bicyclo[1.1.1]pentan-1-yl}-4-{[(1s,3S)-3-hydroxycyclobutyl]amino}-3,4-dihydro-2H-1-benzopyran-2-carboxamide] | 50 to 250 nM
6 | O=C(COc1ccc(Cl)c(F)c1)NC12CC(NC(=O)c3cc(=O)c4cc(Cl)ccc4o3)(C1)C2 [Compound 318, 6-chloro-N-{3-[2-(4-chloro-3-fluorophenoxy)acetamido]bicyclo[1.1.1]pentan-1-yl}-4-oxo-4H-1-benzopyran-2-carboxamide] | < 10 nM
7 | O=C(COc1ccc(Cl)c(F)c1)NC12CC(NC(=O)[C@H]3C=Cc4cc(Cl)ccc4O3)(C1)C2 [Compound 307, (2R)-6-chloro-N-{3-[2-(4-chloro-3-fluorophenoxy)acetamido]bicyclo[1.1.1]pentan-1-yl}-2H-1-benzopyran-2-carboxamide] | < 10 nM
8 | O=C(COc1ccc(Cl)c(Cl)c1)NC12CC(NC(=O)[C@@H]3CC(=O)c4cc(F)c(F)cc4O3)(C1)C2 [Compound 342, (2S)—N-{3-[2-(3,4-dichlorophenoxy)acetamido]bicyclo[1.1.1]pentan-1-yl}-6,7-difluoro-4-oxo-3,4-dihydro-2H-1-benzopyran-2-carboxamide] | 10 to 50 nM
9 | O=C(COc1ccc(Cl)c(F)c1)NC12CC(NC(=O)[C@@H]3C[C@H](O)c4cc(F)c(Cl)cc4O3)(C1)C2 (single isomer, unassigned) [Compound 205] | < 10 nM
10 | O=C(COc1ccc(Cl)c(F)c1)NC12CC(NC(=O)[C@H]3C[C@@H](N[C@H]4C[C@@H](O)C4)c4cc(Cl)ccc4O3)(C1)C2 [Compound 328, (2R,4R)-6-chloro-N-{3-[2-(4-chloro-3-fluorophenoxy)acetamido]bicyclo[1.1.1]pentan-1-yl}-4-{[(1s,3S)-3-hydroxycyclobutyl]amino}-3,4-dihydro-2H-1-benzopyran-2-carboxamide] | 50 to 250 nM
11 | O=C(COc1ccc(Cl)c(F)c1)NC12CC(NC(=O)C3CNc4cc(Cl)ccc4O3)(C1)C2 (single isomer, unassigned) [Compound 102] | < 10 nM
12 | CNC1CC(C(=O)NC23CCC(NC(=O)COc4ccc(Cl)c(F)c4)(CC2)[C@@H](O)C3)Oc2ccc(Cl)cc21 (stereo partly drawn) [Compound 303, 6-chloro-N-{(3S)-4-[2-(4-chloro-3-fluorophenoxy)acetamido]-3-hydroxybicyclo[2.2.2]octan-1-yl}-4-(methylamino)-3,4-dihydro-2H-1-benzopyran-2-carboxamide] | < 10 nM
13 | O=C(COc1ccc(Cl)c(F)c1)NC12CC(NC(=O)[C@H]3C[C@H](NCC(F)(F)F)c4cc(Cl)ccc4O3)(C1)C2 [Compound 327, (2R,4S)-6-chloro-N-{3-[2-(4-chloro-3-fluorophenoxy)acetamido]bicyclo[1.1.1]pentan-1-yl}-4-[(2,2,2-trifluoroethyl)amino]-3,4-dihydro-2H-1-benzopyran-2-carboxamide] | 50 to 250 nM
14 | O=C(COc1cnc(C(F)(F)F)nc1)NC12CC(NC(=O)[C@H]3CC(=O)c4cc(Cl)ccc4O3)(C1)C2 [Compound 329, (2R)-6-chloro-4-oxo-N-[3-(2-{[2-(trifluoromethyl)pyrimidin-5-yl]oxy}acetamido)bicyclo[1.1.1]pentan-1-yl]-3,4-dihydro-2H-1-benzopyran-2-carboxamide] | 50 to 250 nM
15 | O=C(NC12CC(NC(=O)[C@H]3C[C@@H](O)c4cc(Cl)ccc4O3)(C1)C2)c1ccc(Cl)c(F)c1 [Compound 378, (2R,4R)-6-chloro-N-[3-(4-chloro-3-fluorobenzamido)bicyclo[1.1.1]pentan-1-yl]-4-hydroxy-3,4-dihydro-2H-1-benzopyran-2-carboxamide] | 50 to 250 nM
16 | O=C(COc1ccc(Cl)c(F)c1)NC12CCC(NC(=O)C3CC(O)c4cc(Cl)ccc4O3)(CC1)CC2 (centres unmarked) [Compound 337, 6-chloro-N-{4-[2-(4-chloro-3-fluorophenoxy)acetamido]bicyclo[2.2.2]octan-1-yl}-4-hydroxy-3,4-dihydro-2H-1-benzopyran-2-carboxamide] | < 10 nM
17 | O=C(NC12CC(NC(=O)[C@H]3C[C@@H](O)c4cc(Cl)ccc4O3)(C1)C2)c1cnn(-c2ccc(Cl)c(F)c2)c1 [Compound 391, 1-(4-chloro-3-fluorophenyl)-N-(3-{[(2R,4R)-6-chloro-4-hydroxy-3,4-dihydro-2H-1-benzopyran-2-carbonyl]amino}bicyclo[1.1.1]pentan-1-yl)-1H-pyrazole-4-carboxamide] | < 10 nM
18 | O=C(COc1ccc(Cl)c(Cl)c1)NC12CC(NC(=O)[C@H]3CC(=O)c4cc(F)c(F)cc4O3)(C1)C2 [Compound 207E, (2R)—N-{3-[2-(3,4-dichlorophenoxy)acetamido]bicyclo[1.1.1]pentan-1-yl}-6,7-difluoro-4-oxo-3,4-dihydro-2H-1-benzopyran-2-carboxamide] | < 10 nM
19 | COc1ccc2c(=O)cc(C(=O)NC34CC(NC(=O)COc5ccc(Cl)c(F)c5)(C3)C4)oc2c1 [Compound 283, N-{3-[2-(4-chloro-3-fluorophenoxy)acetamido]bicyclo[1.1.1]pentan-1-yl}-7-methoxy-4-oxo-4H-1-benzopyran-2-carboxamide] | 10 to 50 nM
20 | O=C(NC12CC(NC(=O)[C@H]3C[C@@H](O)c4cc(Cl)ccc4O3)(C1)C2)c1cnc(C(F)F)cn1 (racemic) [Compound 218, N-(3-{[rac-(2R,4R)-6-chloro-4-hydroxy-3,4-dihydro-2H-1-benzopyran-2-carbonyl]amino}bicyclo[1.1.1]pentan-1-yl)-5-(difluoromethyl)pyrazine-2-carboxamide] | 10 to 50 nM
21 | O=C(COc1ccc(Cl)c(F)c1)NC12CC(NC(=O)C3=CC(O)c4cc(Cl)ccc4O3)(C1)C2 (centres unmarked) [Compound 315, 6-chloro-N-{3-[2-(4-chloro-3-fluorophenoxy)acetamido]bicyclo[1.1.1]pentan-1-yl}-4-hydroxy-4H-1-benzopyran-2-carboxamide] | < 10 nM
22 | CS(=O)(=O)N[C@H]1C[C@H](C(=O)NC23CC(NC(=O)COc4ccc(Cl)c(F)c4)(C2)C3)Oc2ccc(Cl)cc21 [Compound 244, (2R,4S)-6-chloro-N-{3-[2-(4-chloro-3-fluorophenoxy)acetamido]bicyclo[1.1.1]pentan-1-yl}-4-[(methanesulfonyl)amino]-3,4-dihydro-2H-1-benzopyran-2-carboxamide] | 10 to 50 nM
23 | O=C(COc1ccc(Cl)c(F)c1)NC12CC(NC(=O)C3=Cc4ccc(Cl)cc4OC3)(C1)C2 [Compound 317, 7-chloro-N-{3-[2-(4-chloro-3-fluorophenoxy)acetamido]bicyclo[1.1.1]pentan-1-yl}-2H-1-benzopyran-3-carboxamide] | 10 to 50 nM
24 | C[C@]1(C(=O)NC23CC(NC(=O)COc4ccc(Cl)c(F)c4)(C2)C3)Cc2cc(Cl)ccc2O1 [Compound 258, (2R)-5-chloro-N-{3-[2-(4-chloro-3-fluorophenoxy)acetamido]bicyclo[1.1.1]pentan-1-yl}-2-methyl-2,3-dihydro-1-benzofuran-2-carboxamide] | > 2000 nM
25 | O=C(COc1ccc(Cl)c(F)c1)NC12CCC(NC(=O)C3CC(=O)c4cc(Cl)ccc4O3)(CC1)C[C@@H]2O (stereo partly drawn) [Compound 199C, 6-chloro-N-{(3S)-4-[2-(4-chloro-3-fluorophenoxy)acetamido]-3-hydroxybicyclo[2.2.2]octan-1-yl}-4-oxo-3,4-dihydro-2H-1-benzopyran-2-carboxamide] | < 10 nM
26 | C[C@@]1(C(=O)NC23CC(NC(=O)COc4ccc(Cl)c(F)c4)(C2)C3)Oc2ccc(Cl)cc2C1=O [Compound 320, (2R)-5-chloro-N-{3-[2-(4-chloro-3-fluorophenoxy)acetamido]bicyclo[1.1.1]pentan-1-yl}-2-methyl-3-oxo-2,3-dihydro-1-benzofuran-2-carboxamide] | 500 to 2000 nM
